“And” between values parts separate entries of the source, which are not always exact repeats. Equal entries are not always repeated. Inconclusive results and toxic doses are left out. No stated cut-off is given here; in the data, active means T/C of 150% or more; inactive means T/C below 125%.
Tested on: L1210 leukemia ip in BDF1 mice, survival T/C
Assay: NCI In Vivo Anticancer Drug Screen. Data for tumor model L1210 Leukemia (intraperitoneal) in B6D2F1 (BDF1) mice
Settings: endpoint: mean survival time, higher = longer survival
In short: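 Value reflects the ratio of survival in compound-treated mice to survival in vehicle-treated controls, with both groups carrying the same transplanted tumor.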

[1] = dose: 100.0 mg/kg/injection, schedule: Q04DX003 (ip), vehicle: Klucel (hydroxypropylcellulose) (HPC)
[2] = dose: 200.0 mg/kg/injection, schedule: Q04DX003 (ip), vehicle: Klucel (hydroxypropylcellulose) (HPC)
[3] = dose: 400.0 mg/kg/injection, schedule: Q04DX003 (ip), vehicle: Klucel (hydroxypropylcellulose) (HPC)
[4] = dose: 100.0 mg/kg/injection, schedule: Q01DX001 (ip), vehicle: carboxymethylcellulose (CMC)
[5] = dose: 200.0 mg/kg/injection, schedule: Q01DX001 (ip), vehicle: carboxymethylcellulose (CMC)
[6] = dose: 400.0 mg/kg/injection, schedule: Q01DX001 (ip), vehicle: carboxymethylcellulose (CMC)
[7] = dose: 100.0 mg/kg/injection, schedule: Q01DX001 (ip), vehicle: saline
[8] = dose: 200.0 mg/kg/injection, schedule: Q01DX001 (ip), vehicle: saline
[9] = dose: 400.0 mg/kg/injection, schedule: Q01DX001 (ip), vehicle: saline
[10] = dose: 100.0 mg/kg/injection, schedule: Q01DX009 (ip), vehicle: Klucel (hydroxypropylcellulose) (HPC)
[11] = dose: 200.0 mg/kg/injection, schedule: Q01DX009 (ip), vehicle: Klucel (hydroxypropylcellulose) (HPC)
[12] = dose: 100.0 mg/kg/injection, schedule: Q01DX009 (ip), vehicle: saline with Tween-80
[13] = dose: 200.0 mg/kg/injection, schedule: Q01DX009 (ip), vehicle: saline with Tween-80
[14] = dose: 50.0 mg/kg/injection, schedule: Q01DX009 (ip), vehicle: saline with Tween-80
[15] = dose: 50.0 mg/kg/injection, schedule: Q01DX001 (ip), vehicle: saline

Measured: T/C

CC(C)(CS(C)(=O)=O)C(=O)OCC(=O)c1ccccc1
inactive: [1] 108 % of control | [2] 105 % of control | [3] 105 % of control

Cc1cc(C)n(/N=C/c2ccc([N+](=O)[O-])o2)c(=O)c1C#N
inactive: [4] 88 % of control | [5] 91 % of control | [6] 88 % of control

CC(NCl)c1ccccc1 (configuration not stated)
inactive: [7] 95 % of control | [8] 100 % of control | [9] 100 % of control

O=C(COc1ccccc1)N(O)c1ccc(/C=C/c2ccccc2)cc1
inactive: [4] 93 % of control | [5] 95 % of control | [6] 88 % of control

Cc1ccc(C(=O)O)cc1[N+](=O)[O-]
inactive: [1] 95 % of control | [2] 92 % of control | [3] 103 % of control

CC(C)COC(=O)c1ccc(NC(=S)Nc2ccccc2)cc1
inactive: [10] 93 % of control | [11] 93 % of control

O=C(NO)c1cccc(C(=O)NO)n1
inactive: dose: 237.0 mg/kg/injection, schedule: Q01DX015 (ip), vehicle: water 113 % of control | dose: 356.0 mg/kg/injection, schedule: Q01DX015 (ip), vehicle: water 114 % of control | dose: 533.0 mg/kg/injection, schedule: Q01DX015 (ip), vehicle: water 104 % of control

O=C(Cc1ccccc1)c1ccccc1
inactive: [12] 93 % of control | [13] 93 % of control | dose: 400.0 mg/kg/injection, schedule: Q01DX009 (ip), vehicle: saline with Tween-80 100 % of control

C=CCSc1nc2c(=O)[nH]cnc2n1C1OC(CO)C(O)C1O (configuration not stated)
inactive: dose: 100.0 mg/kg/injection, schedule: Q01DX005 (ip), vehicle: saline 98 % of control | dose: 200.0 mg/kg/injection, schedule: Q01DX005 (ip), vehicle: saline 101 % of control

C[CH2][Sn]([Cl])([Cl])[CH2]C.Oc1ccccc1C=NCCN=Cc1ccccc1O
inactive: dose: 5.0 mg/kg/injection, schedule: Q01DX009 (ip), vehicle: saline with Tween-80 98 % of control | dose: 5.0 mg/kg/injection, schedule: Q04DX003 (ip), vehicle: saline with Tween-80 106 % of control | dose: 10.0 mg/kg/injection, schedule: Q01DX009 (ip), vehicle: saline with Tween-80 97 % of control | dose: 10.0 mg/kg/injection, schedule: Q04DX003 (ip), vehicle: saline with Tween-80 100 % of control | dose: 20.0 mg/kg/injection, schedule: Q04DX003 (ip), vehicle: saline with Tween-80 108 % of control

N/N=C/NN=C(N)N
inactive: dose: 15.0 mg/kg/injection, schedule: Q01DX Z (ip), vehicle: saline 97 % of control | dose: 30.0 mg/kg/injection, schedule: Q01DX Z (ip), vehicle: saline 107 % of control | dose: 60.0 mg/kg/injection, schedule: Q01DX Z (ip), vehicle: saline 100 % of control | dose: 120.0 mg/kg/injection, schedule: Q01DX Z (ip), vehicle: saline 100 % of control | dose: 120.0 mg/kg/injection, schedule: Q01DX Z (oral), vehicle: saline 114 % of control

O=C(CSc1cc(Cl)c(Cl)cc1Cl)Nc1ccccc1Br
inactive: [14] 94 % of control | [12] 97 % of control | [13] 87 % of control

O=C(O)C(CSC(c1ccccc1)c1ccccc1)N1C(=O)c2ccccc2C1=O (configuration not stated)
inactive: dose: 75.0 mg/kg/injection, schedule: Q01DX009 (ip), vehicle: Klucel (hydroxypropylcellulose) (HPC) 102 % of control | dose: 75.0 mg/kg/injection, schedule: Q04DX003 (ip), vehicle: Klucel (hydroxypropylcellulose) (HPC) 97 % of control | dose: 150.0 mg/kg/injection, schedule: Q01DX009 (ip), vehicle: Klucel (hydroxypropylcellulose) (HPC) 98 % of control | dose: 150.0 mg/kg/injection, schedule: Q04DX003 (ip), vehicle: Klucel (hydroxypropylcellulose) (HPC) 109 % of control | dose: 300.0 mg/kg/injection, schedule: Q01DX009 (ip), vehicle: Klucel (hydroxypropylcellulose) (HPC) 104 % of control | dose: 300.0 mg/kg/injection, schedule: Q04DX003 (ip), vehicle: Klucel (hydroxypropylcellulose) (HPC) 94 % of control

CCC(NC(=O)c1cnc2ccccc2n1)C(=O)O (configuration not stated)
inactive: dose: 100.0 mg/kg/injection, schedule: Q04DX003 (ip), vehicle: saline 101 % of control | dose: 200.0 mg/kg/injection, schedule: Q04DX003 (ip), vehicle: saline 92 % of control | dose: 400.0 mg/kg/injection, schedule: Q04DX003 (ip), vehicle: saline 90 % of control

CCCCCC(=O)c1c(O)cc(=O)oc1C
inactive: dose: 3.12 mg/kg/injection, schedule: Q01DX009 (ip), vehicle: Klucel (hydroxypropylcellulose) (HPC) 95 % of control | dose: 6.25 mg/kg/injection, schedule: Q01DX009 (ip), vehicle: Klucel (hydroxypropylcellulose) (HPC) 98 % of control | dose: 12.5 mg/kg/injection, schedule: Q01DX009 (ip), vehicle: Klucel (hydroxypropylcellulose) (HPC) 103 % of control | [1] 90 % of control

NNC(=O)c1cccnc1
inactive: dose: 12.5 mg/kg/injection, schedule: Q01DX009 (ip), vehicle: saline 94 % of control | dose: 25.0 mg/kg/injection, schedule: Q01DX001 (ip), vehicle: saline 100 % of control | dose: 25.0 mg/kg/injection, schedule: Q01DX009 (ip), vehicle: saline 104 % of control | [15] 105 % of control | dose: 50.0 mg/kg/injection, schedule: Q01DX009 (ip), vehicle: saline 98 % of control | [7] 102 % of control and 104 % of control | dose: 100.0 mg/kg/injection, schedule: Q01DX009 (ip), vehicle: saline 105 % of control

Nc1ncnc2c1ncn2C1OC(CO)CC1O (configuration not stated)
inactive: dose: 37.0 mg/kg/injection, schedule: Q01DX Z (ip), vehicle: carboxymethylcellulose (CMC) 114 % of control | [15] 111 % of control | dose: 75.0 mg/kg/injection, schedule: Q01DX Z (ip), vehicle: carboxymethylcellulose (CMC) 111 % of control | [7] 111 % of control | dose: 150.0 mg/kg/injection, schedule: Q01DX Z (ip), vehicle: carboxymethylcellulose (CMC) 114 % of control | [8] 115 % of control | dose: 300.0 mg/kg/injection, schedule: Q01DX Z (ip), vehicle: carboxymethylcellulose (CMC) 114 % of control and 115 % of control | [9] 123 % of control

CCCCCCCC(=O)Nc1ccccc1CC
inactive: dose: 100.0 mg/kg/injection, schedule: Q04DX003 (ip), vehicle: saline with Tween-80 93 % of control | dose: 200.0 mg/kg/injection, schedule: Q04DX003 (ip), vehicle: saline with Tween-80 95 % of control | dose: 400.0 mg/kg/injection, schedule: Q04DX003 (ip), vehicle: saline with Tween-80 86 % of control

CN(C)c1ccc(/C=N/NC(=S)Nc2ccccc2)cc1
inactive: [10] 109 % of control | [11] 98 % of control | dose: 400.0 mg/kg/injection, schedule: Q01DX009 (ip), vehicle: Klucel (hydroxypropylcellulose) (HPC) 94 % of control

Cc1cc([N+](=O)[O-])ccc1O
inactive: [7] 100 % of control | [8] 100 % of control

S=c1[nH]sc(=S)[nH]1
inactive: [12] 100 % of control | [13] 98 % of control

CCCC1C(CC)CC(CC)C(O)C1(CC)CO (configuration not stated)
inactive: dose: 100.0 mg/kg/injection, schedule: Q01DX009 (ip), vehicle: other 98 % of control | dose: 200.0 mg/kg/injection, schedule: Q01DX009 (ip), vehicle: other 95 % of control | dose: 400.0 mg/kg/injection, schedule: Q01DX009 (ip), vehicle: other 87 % of control

Cc1ccc(N=Nc2ccc(C)cc2NC(=O)/C=C/c2ccccc2)cc1
inactive: [14] 96 % of control | [12] 90 % of control | [13] 86 % of control

Source: PubChem BioAssay AID248 (DTP/NCI, 2004)
